The values below come from patent US7129073B2, “Regulation of neuronal function through metabotropic glutamate receptor signaling pathways” (The Rockefeller University, priority 2001, dated 2006).

One assay relates to HA-tagged CK1ε. Briefly: kinase activity of HA-CK1ε immunoprecipitated from transfected N2a cells, DARPP-32 as substrate. Type of assay: cell-based. As for the experimental part:
Neuroblastoma N2a cells were cultured in DMEM containing 5% fetal bovine serum (FBS) to 50–60% confluency. Four micrograms of the expression plasmid for HA-CK1ε were transfected into N2a cells in 100 mm dishes using FuGENE™ 6. Twenty-four hours after transfection, cells were incubated in phosphate-buffered Krebs-Henseleit solution (Sigma) for 10 minutes at room temperature. Cells were then incubated with or without CKI inhibitor for 30 minutes before treating with the group I mGluR agonist (S)-3,5-DHPG (100 μM) for 2 minutes. Cells were then lysed in one ml of lysis buffer containing 1% Nonidet P-40 (NP-40), 150 mM NaCl, 0.1% SDS, 50 mM Tris (pH 8.0), 5 mM Na3VO4, 20 mM NaF, 20 mM β-glycerol-phosphate and protease inhibitors. Lysates were centrifuged at 10,000 g and supernatants were used for immunoprecipitation and kinase assay.
For immunoprecipitation of CKI from N2a cells, lysates (1 mg of total protein) were pre-cleared with 5 μl of mouse IgG and 50 μl of protein A agarose for 30 minutes. Five μl of anti-HA antibody were added and samples were incubated for 1 hour at 4° C. Five μl of anti-mouse rabbit IgG and 50 μl of protein A agarose were then added for 45 minutes. Immuno-complexes were washed three times in lysis buffer, two times in kinase buffer (30 mM Hepes (pH 7.5), 7 mM MgCl2, 0.5 mM DTT). CKI assays were performed in a 30 μl assay volume with 2 μg of purified DARPP-32, 500 μM ATP and 5 μCi γ-^32P-ATP. Samples were incubated at 30° C. for 20 minutes, reactions were stopped by addition of SDS-sample buffer, and samples were boiled for 5 minutes. Samples were separated by SDS-PAGE (12% polyacrylamide). SDS-PAGE gels were dried and exposed to Kodak film for autoradiography. Bands were quantified by analysis using a Molecular Dynamics PhosphorImager.
Neuroblastoma N2a cells were cultured to 50–60% confluence in DMEM containing 5% fetal bovine serum. Four μg of the expression plasmid for HA-CK1ε or myc-MM2-CK1ε was transfected into N2a cells in 100 mm dishes using FuGENE6™. Twenty-four hours after transfection, cells were incubated at room temperature in phosphate-buffered Kreb's-Henseleit solution (Sigma) for 10 min and then with or without inhibitors for 30 min before treating with (S)-3,5-DHPG, for 2 min. Cells were then lysed in 1 ml of radio-immunoprecipitation (RIPA) buffer containing 1% NP-40, 150 mM NaCl, 0.1% SDS, 50 mM Tris, pH 8.0, 5 mM Na3VO4, 20 mM NaF, 20 mM β-glycerol-phosphate and protease inhibitors. Lysates were centrifuged at 10,000 g, and supernatants were used for immunoprecipitation and kinase assay.
For immunoprecipitation of CK1ε from N2a cells, lysates (1 mg of total protein) were precleared with 5 μl of mouse IgG (ICN) and 50 μl of protein A agarose for 30 min. Five μl (approximately 2 μg) of anti-HA or anti-myc antibody was added and samples were incubated for 1 h at 4° C. Five μl of anti-mouse rabbit IgG and 50 μl of protein A agarose were then added for 45 min. Immuno-complexes were washed 3 times in lysis buffer and 2 times in kinase buffer (30 mM Hepes, pH 7.5, 7 mM MgCl2, 0.5 mM DTT).
CK1 assays were performed in a 30 μl assay volume with 2 μg of purified DARPP-32, 500 μM ATP and 5 μCi γ-^32P-ATP. Reactions were started by addition of the ATP. Samples were incubated at 30° C. for 10 min and reactions were stopped by addition of SDS-sample buffer and boiled for 5 min. Samples were separated by SDS-PAGE (12% polyacrylamide). SDS-PAGE gels were dried and exposed to Kodak film for autoradiography. Results were quantified using a Molecular Dynamics PHOSPHORIMAGER™. Immunoprecipitation and assay of Cdk5 were performed as disclosed (20).

Assay [1] deals with voltage-dependent Ca2+ channels. Briefly: whole-cell recordings of voltage-dependent Ca2+ channels in dissociated neostriatal neurons. Type of assay: cell-based, mouse. To be noted: for effect on basal Ca2+ currents / effect on the enhancement of Ca2+ currents by DHPG: CK1–7 100 μM, butyrolactone 25 μM (FIG. 6). The procedure:
Neostriatal neurons from 3- to 4-week-old mice were acutely dissociated by using procedures similar to those disclosed in Eberwine et al. (1995, Prog. Brain Res. 105:117–126). Whole-cell current recordings used standard voltage-clamp techniques. The internal solution consisted of 180 mM N-methyl-D-glucamine, 40 mM Hepes, 4 mM MgCl2, 0.5 mM 1,2-bis(2-aminophenoxy)ethane-N,N,N′,N′-tetraacetate, 12 mM phosphocreatine, 2 mM Na2ATP, 0.2 mM Na3GTP, 0.1 mM leupeptin (pH 7.2–7.3), 265–270 mosm/liter. The external solution consisted of 135 mM NaCl, 20 mM CsCl, 1 mM MgCl2, 10 mM Hepes, 0.001 mM tetrodotoxin, 5 mM BaCl2, 10 mM glucose (pH 7.3), 300–305 mosm/liter. Recordings were obtained with an Axon Instruments 200B patch clamp amplifier that was controlled and monitored with an IBM PC running PCLAMP™ (v. 8) with a DigiData 1320 series interface (Axon Instruments, Foster City, Calif.). Electrode resistances were typically 2–4 MΩ in the bath. After seal rupture, series resistance (4–10 MΩ) was compensated (70–90%) and periodically monitored. Drugs were applied with a gravity-fed “sewer pipe” system. The array of application capillaries was positioned 250 μm from the cell under study. Solution changes were effected by altering the position of the array with a DC drive system controlled by a microprocessor-based controller (Newport-Klinger, Irvine, Calif.). Data analyses were performed with AXOGRAPH™ (Axon Instruments), […]™ (Albeck Software, Reading, Pa.), and […]™ (Abacus Concepts, Berkeley, Calif.).

Entries after “also recorded” stand apart in the source; their conditions may differ.

For the compound `NCCNS(=O)(=O)c1ccc(Cl)c2ccncc12` [CKI-7], in the assay with HA-tagged CK1ε (30 min before DHPG 100 μM 2 min, CKI-7 100 μM, L-AP3 100 μM, U73122 10 μM, BAPTA/AM 20 μM, cyclosporin A 1 μM), the “effect of pre-incubation on the ability of DHPG to increase CK1ε activity” value was “blocked”. For the same compound, the entries for the “effect on basal Ca2+ currents” value in assay [1] and in assay [1] (listed as CK1–7) were “significant reduction” and “reduced”, respectively. Besides, the “effect on the enhancement of Ca2+ currents by DHPG” value in assay [1] (DHPG 100 μM) is “eliminated”; in assay [1] (DHPG 100 μM, listed as CK1–7), “attenuated”.
Turning to `N[C@H](C(=O)O)c1cc(O)cc(O)c1` [DHPG, (S)-3,5-Dihydroxyphenylglycine], the “effect on CK1ε activity” value in the assay on HA-tagged CK1ε (DHPG 100 μM for 2 min) is “increase”. The “increase in CKI activity compared to the basal level” value in the assay with HA-tagged CK1ε (DHPG 100 μM for 2 minutes) is on record as “approximately 2 fold”. In assay [1] (DHPG), the “time to enhancement of Ca2+ currents” value is no more than 90 s. Further, in assay [1] (DHPG 100 μM, wild-type neurons), the “effect on Ca2+ currents” value is listed as “enhanced; also recorded: increased”. For the same compound, the “effect of DHPG on Ca2+ channels in neurons from DARPP-32 knock-out mice” value in assay [1] (DHPG 100 μM, nine out of ten neurons) is “completely eliminated; also recorded: no effect”.
